Values of other authors as cited in patent publication US20170119791A1, “METHODS AND COMPOSITIONS FOR DERMATOLOGICAL USE COMPRSING BETAMETHASONE AND BIOPOLYMERS” (APEX LABORATORIES PRIVATE LIMITED, priority 2015, published 2017).
Where two headings read alike, the source gives them in different places.

Compound	Solubility (in acetone)	Solubility (in alcohol)	Solubility (in benzene)	Solubility (in chloroform)	Solubility (in ether)	Solubility (in water)
CCCCC(=O)O[C@]1(C(=O)CO)[C@@H](C)C[C@H]2[C@@H]3CCC4=CC(=O)C=C[C@]4(C)[C@@]3(F)[C@@H](O)C[C@@]21C [Betamethasone valerate, 9-Fluoro-11β, 17,21-trihydroxy-16β-methylpregna-1,4-diene-3,20-dione 17-valerate]	freely soluble	soluble	slightly soluble	freely soluble	slightly soluble	practically insoluble
CCC(=O)OCC(=O)[C@@]1(OC(=O)CC)[C@@H](C)C[C@H]2[C@@H]3CCC4=CC(=O)C=C[C@]4(C)[C@@]3(F)[C@@H](O)C[C@@]21C [Betamethasone dipropionate, 9-fluoro-11β, 17,21-trihydroxy-16β-methylpregna-1,4-diene-3,20-dione 17,21-dipropionate]	freely soluble	sparingly soluble				insoluble
